Laboratory results from US6737383B1, “Herbicidal oxadiazolidines” (priority 1999, dated 2004).

Tests used:
[1] = system: velvetleaf; experiment: Test B pre/postemergence velvetleaf; assay type: in vivo, Abutilon theophrasti
Method in brief: (§1)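 Response is a visual 0-to-10 score relative to untreated plants, where 0 means no effect and 10 means complete control, taken twelve to sixteen days after application. Treatments went onto soil at planting and onto foliage of 1- to 4-leaf plants, using a surfactant-containing non-phytotoxic solvent.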

[2] = system: cocklebur; experiment: Test B pre/postemergence cocklebur; assay type: in vivo, Xanthium strumarium
Method in brief: as §1

[3] = system: pigweed; experiment: Test B pre/postemergence pigweed; assay type: in vivo, Amaranthus retroflexus
Method in brief: as §1

[4] = system: purple nutsedge; experiment: Test B pre/postemergence purple nutsedge; assay type: in vivo, Cyperus rotundus
Method in brief: as §1

[5] = system: corn; experiment: Test B pre/postemergence corn; assay type: in vivo, Zea mays
Method in brief: as §1

[6] = system: rape; experiment: Test B pre/postemergence rape; assay type: in vivo, Brassica napus
Method in brief: as §1

[7] = system: blackgrass; experiment: Test B pre/postemergence blackgrass; assay type: in vivo, Alopecurus myosuroides
Method in brief: as §1

[8] = system: wheat; experiment: Test B pre/postemergence wheat; assay type: in vivo, Triticum aestivum
Method in brief: as §1

[9] = system: rice; experiment: Test B flood test rice; assay type: in vivo, Oryza sativa
Method in brief: (§2)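 Flood test on plants grown to the 2-leaf stage; treated plants kept in greenhouse twelve to sixteen days, then visually rated against controls on a 0 (no effect) to 10 (complete control) scale.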

[10] = system: morningglory; experiment: Test B pre/postemergence morningglory; assay type: in vivo, Ipomoea hederacea
Method in brief: as §1

[11] = system: duck salad; experiment: Test B flood test duck salad; assay type: in vivo, Heteranthera limosa
Method in brief: as §2

[12] = system: surinam grass; experiment: Test B pre/postemergence surinam grass; assay type: in vivo, Brachiaria decumbens
Method in brief: as §1

[13] = system: wild oat; experiment: Test B pre/postemergence wild oat; assay type: in vivo, Avena fatua
Method in brief: as §1

[14] = system: smallflower flatsedge; experiment: Test B flood test smallflower flatsedge; assay type: in vivo, Cyperus difformis
Method in brief: as §2

[15] = system: bedstraw; experiment: Test B pre/postemergence bedstraw; assay type: in vivo, Galium aparine
Method in brief: as §1

[16] = system: bamyardgrass; experiment: Test B flood test barnyardgrass; assay type: in vivo, Echinochloa crus-galli
Method in brief: as §2

[17] = Postemergence, Rate 62 g/ha, scale of 0 to 10, 0 is no effect, 10 is complete control
[18] = Postemergence, Rate 125 g/ha, scale 0 to 10, 0 is no effect, 10 is complete control
[19] = Postemergence, Rate 500 g/ha, scale 0 to 10, 0 is no effect, 10 is complete control
[20] = Preemergence, Rate 62 g/ha, scale 0 to 10 (0 no effect, 10 complete control)
[21] = Preemergence, Rate 125 g/ha, scale 0 to 10, 0 is no effect, 10 is complete control
[22] = Preemergence, Rate 500 g/ha, scale of 0 to 10 where 0 is no effect and 10 is complete control
[23] = Rate 250 g/ha, Postemergence, scale of 0 to 10 where 0 is no effect and 10 is complete control
[24] = Rate 62 g/ha, flood test species, Pre-emergence, visual evaluation after twelve to sixteen days
[25] = Rate 125 g/ha, under heading Pre-emergence, flood test species, visual evaluation after twelve to sixteen days
[26] = Rate 250 g/ha, Pre-emergence (flood test species), scale 0 to 10, 0 is no effect, 10 is complete control
[27] = Rate 500 g/ha, Pre-emergence section of Table B, 0 to 10 scale (0 no effect, 10 complete control)

CC(C)N(C(=O)n1oc(=O)n(CC2CCC2)c1=O)c1ccc(Cl)cc1 [Compound 550]
Velvetleaf plant response rating [1, 17]: 0
Velvetleaf plant response rating [1, 18]: 0
Plant response rating, Velvetleaf [1, 19]: 2
Velvetleaf plant response rating [1, 20]: 0
Velvetleaf plant response rating [1, 21]: 0
Velvetleaf plant response rating (0 to 10 scale) ([1]; Preemergence, Rate 250 g/ha): 2
Velvetleaf plant response rating [1, 22]: 4
Plant response rating, Velvetleaf [1, 23]: 0
Cocklebur plant response rating [2, 17]: 0
Cocklebur plant response rating [2, 18]: 0
Plant response rating, Cocklebur [2, 19]: 2
Cocklebur plant response rating [2, 20]: 0
Cocklebur plant response rating [2, 21]: 0
Cocklebur plant response rating (0 to 10 scale) ([2]; Preemergence, Rate 250 g/ha): 0
Cocklebur plant response rating [2, 22]: 0
Plant response rating, Cocklebur [2, 23]: 1
Redroot pigweed plant response rating [3, 17]: 0
Redroot pigweed plant response rating [3, 18]: 0
Plant response rating, Redroot pigweed [3, 19]: 0
Redroot pigweed plant response rating [3, 20]: 7
Redroot pigweed plant response rating [3, 21]: 9
Redroot pigweed plant response rating (0 to 10 scale) ([3]; Preemergence, Rate 250 g/ha): 9
Redroot pigweed plant response rating [3, 22]: 10
Plant response rating, Redroot pigweed [3, 23]: 0
Nutsedge plant response rating [4, 17]: 0
Nutsedge plant response rating [4, 18]: 0
Plant response rating, Nutsedge [4, 19]: 2
Nutsedge plant response rating [4, 20]: 0
Nutsedge plant response rating [4, 21]: 0
Nutsedge plant response rating (0 to 10 scale) ([4]; Preemergence, Rate 250 g/ha): 0
Nutsedge plant response rating [4, 22]: 6
Plant response rating, Nutsedge [4, 23]: 0
Corn plant response rating [5, 17]: 0
Corn plant response rating [5, 18]: 0
Plant response rating, Corn [5, 19]: 2
Corn plant response rating [5, 20]: 0
Corn plant response rating [5, 21]: 0
Corn plant response rating (0 to 10 scale) ([5]; Preemergence, Rate 250 g/ha): 0
Corn plant response rating [5, 22]: 0
Plant response rating, Corn [5, 23]: 0
Rape plant response rating [6, 17]: 0
Rape plant response rating [6, 18]: 3
Plant response rating, Rape [6, 19]: 3
Rape plant response rating [6, 20]: 0
Rape plant response rating [6, 21]: 0
Rape plant response rating (0 to 10 scale) ([6]; Preemergence, Rate 250 g/ha): 6
Rape plant response rating [6, 22]: 9
Blackgrass plant response rating [7, 17]: 0
Blackgrass plant response rating [7, 18]: 0
Plant response rating, Blackgrass [7, 19]: 2
Blackgrass plant response rating [7, 20]: 0
Blackgrass plant response rating [7, 21]: 2
Blackgrass plant response rating (0 to 10 scale) ([7]; Preemergence, Rate 250 g/ha): 7
Blackgrass plant response rating [7, 22]: 9
Plant response rating, Blackgrass [7, 23]: 2
Wheat plant response rating [8, 17]: 0
Wheat plant response rating [8, 18]: 0
Plant response rating, Wheat [8, 19]: 0
Wheat plant response rating [8, 20]: 0
Wheat plant response rating [8, 21]: 2
Wheat plant response rating (0 to 10 scale) ([8]; Preemergence, Rate 250 g/ha): 2
Wheat plant response rating [8, 22]: 2
Plant response rating, Wheat [8, 23]: 0
Plant response rating, Rice (0 to 10 scale, 0 is no effect, 10 is complete control) [9, 24]: 0
Rice plant response rating (0 to 10 scale, 0 is no effect, 10 is complete control) [9, 25]: 0
Rice plant response rating [9, 26]: 0
Rice plant response rating [9, 27]: 0
Morningglory plant response rating [10, 17]: 1
Morningglory plant response rating [10, 18]: 1
Plant response rating, Morningglory [10, 19]: 8
Morningglory plant response rating [10, 20]: 0
Morningglory plant response rating [10, 21]: 0
Morningglory plant response rating (0 to 10 scale) ([10]; Preemergence, Rate 250 g/ha): 0
Morningglory plant response rating [10, 22]: 0
Plant response rating, Morningglory [10, 23]: 9
Plant response rating, Ducksalad (0 to 10 scale, 0 is no effect, 10 is complete control) [11, 24]: 0
Ducksalad plant response rating (0 to 10 scale, 0 is no effect, 10 is complete control) [11, 25]: 0
Ducksalad plant response rating [11, 26]: 0
Ducksalad plant response rating [11, 27]: 0
B. signalgrass plant response rating [12, 17]: 0
B. signalgrass plant response rating [12, 18]: 0
Plant response rating, B. signalgrass [12, 19]: 2
B. signalgrass plant response rating [12, 20]: 6
B. signalgrass plant response rating [12, 21]: 9
B. signalgrass plant response rating (0 to 10 scale, 0 is no effect, 10 is complete control) ([12]; Preemergence, Rate 250 g/ha): 9
B. signalgrass plant response rating [12, 22]: 10
Plant response rating, B. signalgrass [12, 23]: 2
Wild oats plant response rating [13, 17]: 0
Wild oats plant response rating [13, 18]: 2
Plant response rating, Wild oats [13, 19]: 3
Wild oats plant response rating [13, 20]: 0
Wild oats plant response rating [13, 21]: 0
Wild oats plant response rating (0 to 10 scale) ([13]; Preemergence, Rate 250 g/ha): 2
Wild oats plant response rating [13, 22]: 8
Plant response rating, Wild oats [13, 23]: 4
Plant response rating, S. Flatsedge (0 to 10 scale, 0 is no effect, 10 is complete control) [14, 24]: 0
S. Flatsedge plant response rating (0 to 10 scale, 0 is no effect, 10 is complete control) [14, 25]: 0
S. Flatsedge plant response rating [14, 26]: 0
S. Flatsedge plant response rating [14, 27]: 0
Bedstraw plant response rating [15, 17]: 0
Bedstraw plant response rating [15, 18]: 0
Plant response rating, Bedstraw [15, 19]: 0
Bedstraw plant response rating [15, 20]: 0
Bedstraw plant response rating [15, 21]: 0
Bedstraw plant response rating (0 to 10 scale) ([15]; Preemergence, Rate 250 g/ha): 0
Bedstraw plant response rating [15, 22]: 3
Plant response rating, Bedstraw [15, 23]: 0
Plant response rating, Barnyardgrass (0 to 10 scale, 0 is no effect, 10 is complete control) [16, 24]: 0
Barnyardgrass plant response rating (0 to 10 scale, 0 is no effect, 10 is complete control) [16, 25]: 0
Barnyardgrass plant response rating [16, 26]: 0
Barnyardgrass plant response rating [16, 27]: 0
